From patent US20090081249A1 (priority 2007, published 2009) come the findings set out here.

Each structure is given as a SMILES string.

In the experiment the test system is B/Hong-Kong/36/05, mutant strain, resistant to zanamivir and oseltamivir. The experiment is classed as cell-based, influenza B.

As usually defined, the IC50 is the concentration at which inhibition is half-maximal. High values mean weaker potency in that assay, low ones greater potency in that assay. The compound `CC(=O)N[C@H]1[C@H]([C@H](O)[C@H](O)CO)OC(C(=O)O)=C[C@@H]1N=C(N)N` [Zanamivir, zanamivir] displayed an IC50 of 210000 nM.
